Laboratory results published in ChEMBL document CHEMBL1201862, “PubChem BioAssay data set” (2004).
The source made the active and inactive calls.

Legend:
fMet-Leu-Phe receptor = target: T1, fMet-Leu-Phe receptor (Homo sapiens, UniProt P21462); assay: FPR ligands, dose response (AID 519); format: functional
T1 sequence (P21462 whole entry): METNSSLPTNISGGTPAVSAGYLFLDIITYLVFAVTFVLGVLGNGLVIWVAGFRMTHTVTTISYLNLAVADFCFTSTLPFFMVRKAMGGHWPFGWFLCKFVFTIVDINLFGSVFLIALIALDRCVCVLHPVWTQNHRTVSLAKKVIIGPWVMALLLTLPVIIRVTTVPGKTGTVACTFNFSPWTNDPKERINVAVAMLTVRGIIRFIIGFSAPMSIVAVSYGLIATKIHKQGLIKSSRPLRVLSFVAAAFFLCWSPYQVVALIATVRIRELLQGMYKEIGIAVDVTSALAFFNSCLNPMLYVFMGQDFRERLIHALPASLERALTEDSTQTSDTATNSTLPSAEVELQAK

[1] = HeLa cell cytotoxicity, dose response, cytotoxicity control for MgcRacGAP inhibitor project (AID 624300); format: functional
[2] = target: T2, Rac GTPase-activating protein 1 (Homo sapiens, UniProt Q9H0H5); assay: MgcRacGAP GTPase-activating activity inhibitors, confirmation, biochemical, ADP Hunter fluorescence, primary and confirmatory (AID 624330); format: functional
T2 sequence (Q9H0H5 whole entry): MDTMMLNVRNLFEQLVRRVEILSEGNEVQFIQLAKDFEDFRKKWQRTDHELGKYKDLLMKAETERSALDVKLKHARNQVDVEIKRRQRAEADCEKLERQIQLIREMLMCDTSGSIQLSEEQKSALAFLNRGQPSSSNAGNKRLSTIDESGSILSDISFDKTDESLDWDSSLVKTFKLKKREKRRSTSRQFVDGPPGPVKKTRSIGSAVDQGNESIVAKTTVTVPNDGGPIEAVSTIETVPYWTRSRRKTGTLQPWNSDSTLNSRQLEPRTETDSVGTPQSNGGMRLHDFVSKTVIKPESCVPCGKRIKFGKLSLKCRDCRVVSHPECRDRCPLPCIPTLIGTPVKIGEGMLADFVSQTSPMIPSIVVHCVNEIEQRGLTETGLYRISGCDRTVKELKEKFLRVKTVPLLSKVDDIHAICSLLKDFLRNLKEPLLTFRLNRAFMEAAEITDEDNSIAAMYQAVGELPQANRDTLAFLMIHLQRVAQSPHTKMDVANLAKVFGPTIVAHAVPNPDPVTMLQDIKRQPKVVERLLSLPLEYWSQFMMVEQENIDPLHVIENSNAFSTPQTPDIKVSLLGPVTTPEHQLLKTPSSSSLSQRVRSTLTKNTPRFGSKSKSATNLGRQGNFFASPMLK

[3] = target: NAD-dependent protein deacylase sirtuin-5, mitochondrial (Homo sapiens, UniProt Q9NXA8); assay: SIRT5 desuccinylase inhibitors, dose response, biochemical, fluorescence imaging, cherry-pick, set 5 (AID 720591);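 note: desuccinylation of succinyl peptide AMC substrate read as fluorescence after trypsin release; potency of inhibitors that lower fluorescence and may act on trypsin instead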
Sequence of NAD-dependent protein deacylase sirtuin-5, mitochondrial (Q9NXA8 whole entry): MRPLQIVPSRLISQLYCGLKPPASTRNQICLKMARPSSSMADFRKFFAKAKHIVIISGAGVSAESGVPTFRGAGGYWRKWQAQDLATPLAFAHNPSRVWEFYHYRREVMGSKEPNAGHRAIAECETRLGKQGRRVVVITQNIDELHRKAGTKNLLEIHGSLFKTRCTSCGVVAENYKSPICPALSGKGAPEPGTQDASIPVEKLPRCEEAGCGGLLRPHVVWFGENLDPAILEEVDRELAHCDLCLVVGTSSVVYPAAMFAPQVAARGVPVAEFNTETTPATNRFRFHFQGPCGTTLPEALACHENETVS

H9c2 = assay: cells; format: functional, cell-based; conditions: Rattus norvegicus, H9c2, Myocardium;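 note: confirmatory concentration-response retest of ultra-high-throughput screening hits for modulation of myocardial damage; cell death induced by hydrogen peroxide oxidative stress; compound pretreatment for 60 min then peroxide exposure for 2 h; potency is for protecting the cells against peroxide damage rather than for killing them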
[4] = A549 cell cytotoxicity, dose response, cytotoxicity control, plate reader, cherry-pick, antagonist series (AID 743412); format: functional, cell-based
[5] = HepG2 cell cytotoxicity, dose response, cytotoxicity control, plate reader, cherry-pick, antagonist series (AID 743416); format: functional, cell-based
[6] = LGR2 antagonists, dose response, cell-based, HEK293, CRE-luciferase reporter, cherry pick, set 2 (AID 743343); format: functional;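 note: transfected cells were stimulated with diluted bursicon conditioned medium after compound addition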
[7] = target: T3, Disintegrin and metalloproteinase domain-containing protein 17 (Homo sapiens, UniProt P78536); assay: exosite inhibitors of ADAM17, dose response, biochemical (AID 743260)
T3 sequence (P78536 whole entry, the tested form may be a part): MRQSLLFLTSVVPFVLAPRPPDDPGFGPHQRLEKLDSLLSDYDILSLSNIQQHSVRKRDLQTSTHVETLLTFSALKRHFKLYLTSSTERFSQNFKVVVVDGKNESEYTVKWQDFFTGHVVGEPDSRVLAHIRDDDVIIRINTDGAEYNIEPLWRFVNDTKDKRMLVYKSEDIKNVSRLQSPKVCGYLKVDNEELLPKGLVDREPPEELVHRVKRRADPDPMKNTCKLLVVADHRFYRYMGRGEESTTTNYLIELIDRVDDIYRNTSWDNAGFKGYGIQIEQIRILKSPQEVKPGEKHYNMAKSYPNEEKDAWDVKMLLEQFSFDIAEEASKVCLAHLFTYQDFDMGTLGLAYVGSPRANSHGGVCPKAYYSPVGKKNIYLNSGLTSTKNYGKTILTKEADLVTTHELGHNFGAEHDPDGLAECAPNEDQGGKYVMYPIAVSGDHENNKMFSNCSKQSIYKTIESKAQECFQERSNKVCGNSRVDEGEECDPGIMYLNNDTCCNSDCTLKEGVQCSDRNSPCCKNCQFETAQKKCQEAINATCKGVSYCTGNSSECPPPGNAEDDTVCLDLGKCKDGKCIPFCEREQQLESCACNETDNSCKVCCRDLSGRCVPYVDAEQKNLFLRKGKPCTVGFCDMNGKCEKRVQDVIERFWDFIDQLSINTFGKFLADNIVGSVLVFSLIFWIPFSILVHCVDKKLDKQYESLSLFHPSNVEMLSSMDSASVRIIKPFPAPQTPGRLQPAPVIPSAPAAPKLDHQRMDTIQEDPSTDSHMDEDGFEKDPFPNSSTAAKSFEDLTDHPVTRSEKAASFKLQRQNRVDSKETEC

[8] = MC4R antagonists, dose response, counter-screen for LGR2 antagonist project, cell-based, plate reader, cherry pick (AID 743444); format: functional;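 note: transfected HEK 293 cells stimulated with alpha-MSH peptide; potency of inhibitors of the alpha-MSH evoked signal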
[9] = ADAM10 protease inhibitors, dose response, selectivity assay for ADAM17 exosite inhibitor project, biochemical, FRET peptide substrate, recombinant human ADAM10 (AID 743259);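 note: ADAM10 enzyme cleaving a FRET peptide substrate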
[10] = HEK293 cell cytotoxicity, dose response, cytotoxicity control, plate reader, cherry-picked samples (AID 743446); format: functional, cell-based
Prothrombin = Prothrombin (Homo sapiens, UniProt P00734); assay: Thrombin 1536 HTS Dose Response Confirmation. [Related pubchem assays: 1046 (Thrombin 1536 HTS; hits were confirmed in this assay)]; format: functional
HEK293 = assay: Fluorescence-based counterscreen for potentiators or agonists of NPY-Y2: cell-based high-throughput dose response assay to identify inhibitors of cyclic nucleotide gated ion channel (CNGC) activity. In this assay, the parental HEK293 cell line transfected with a cyclic-nucleotide gated ion channel (CNGC)-based cAMP sensor is used to measure inhibition of isoproterenol-induced CNGC activity by test compound.; format: functional; conditions: Homo sapiens;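 note: stimulus is 1 µM isoproterenol at EC100 plus PDE inhibitor Ro 20-1724 at 25 µM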
[11] = system: Streptococcus sp. 'group A'; assay: growth inhibition of control SK(-) GAS strain, dose response, counter-screen for streptokinase expression inhibitor project, luminescence, kanamycin, BacTiterGlo, confirmation (AID 1900); format: functional, organism-based
Streptococcus = assay: Group A Streptococcus viability loss, dose response, counter-screen for streptokinase expression inhibitor project, luminescence, BacTiterGlo (AID 1915); format: functional, organism-based;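 note: potency for reduction of bacterial viability or growth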
[12] = growth suppression of PTEN-null colon cells, dose response, cell-based, HCT116 PTEN knockout (AID 1047); format: functional;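 note: HCT116 colon tumor cells with PTEN knocked out; cells exposed to compound for 60 hours before readout; potency for loss of cell viability measured by luminescence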
[13] = growth suppression of beta-catenin-knockout colon cells, dose response, cell-based, HCT116, human colon tumor (AID 1045); format: functional;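 note: HCT116 colon tumor cells with beta catenin knocked out; cells exposed to compound for 60 hours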
[14] = target: T3, Disintegrin and metalloproteinase domain-containing protein 17; assay: ADAM17 protease inhibitors, dose response, counter-screen for ADAM10 exosite inhibitor project, biochemical, quenched FRET substrate (AID 743253)
[15] = HEp-2 cell cytotoxicity, dose response, cytotoxicity control for RSV inhibitor project, HTS (AID 2410); format: functional; conditions: human respiratory syncytial virus
[16] = P. falciparum 3D7-ScDHODH growth inhibitors, dose response, SYBR Green, dry powder samples (AID 1159570); format: functional, cell-based;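 note: parasite growth measured after 72 hours of compound exposure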
[17] = P. falciparum Dd2 growth inhibitors, dose response, SYBR Green, cherry-picked samples (AID 1159567); format: functional, cell-based
[18] = P. falciparum Dd2 growth inhibitors, dose response, SYBR Green, dry powder samples (AID 1159566); format: functional, cell-based;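 note: potency for growth inhibition with lower SYBR green DNA signal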
[19] = P. falciparum ATP4 D1247Y mutant growth inhibitors, dose response, NITD609-resistant line, SYBR Green, dry powder (AID 1159571); format: functional, cell-based;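 note: parasites synchronized at ring stage by sorbitol before testing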

Compound: C=CCN1C(=O)C2(C(C(=O)c3ccc4c(c3)OCCO4)=C(O)C(=O)N2CCCOC)c2ccccc21 (stereo unspecified)
- Ki (fMet-Leu-Phe receptor): > 66.7 µM (inactive)

Compound: CCN(CC)c1ccc(S(=O)(=O)N2CCOCC2)cc1NC(=O)CN1CCN(Cc2ccccc2)CC1
- CC50 [1]: 100 µM (active)
- IC50 [2]: 84.5 µM (active)
- AC50 [3]: 18.1 µM (active)

Compound: Cc1ccsc1C1C2=C(O)CC(C)(C)CC2=Nc2ncnn21 (stereo unspecified)
- Ki (fMet-Leu-Phe receptor): 12.5 µM (active)

Compound: CCc1nc2ccc(C(=O)Nc3cc(-c4ccccc4)ccc3OC)cn2c1N(C)Cc1nccs1
- IC50 (H9c2): > 79 µM (inactive)
- AC50 [4]: 21.6 µM (active)
- AC50 [5]: 51.1 µM (active)
- AC50 [6]: 9.18 µM (active)
- IC50 [7]: > 69.5 µM (inactive)
- AC50 [8]: 18.4 µM (active)
- IC50 [9]: > 69.5 µM (inactive)
- AC50 [10]: 18.1 µM (active)

Compound: CCc1ccccc1NC(=O)CNC(=O)CNC(=O)c1cccs1
- AC50 [3]: 25.1 µM (active)

Compound: Cc1ccc(C)c(NC(=O)C2Cc3ccccc3CN2C(=O)OCc2ccccc2)c1 (stereo unspecified)
- IC50 (Prothrombin): > 50 µM (not active)

Compound: CC(=O)C(=Nc1ccc(Cl)cc1Cl)NNc1cccc(Cl)c1
- EC50 (HEK293): > 35.4 µM (not active)
- EC50 [11]: 3.14 µM (active)
- EC50 (Streptococcus): > 150 µM (not active)

Compound: N#Cc1c(Cl)nc(N/N=C/c2ccccc2)c(Cl)c1Cl
- EC50 [12]: 12.1 µM (active)
- EC50 [13]: 6.92 µM (active)
- IC50 [14]: > 69.5 µM (inactive)

Compound: OC(CNCc1ccccc1)COc1ccccc1 (stereo unspecified)
- AC50 [3]: > 30 µM (inactive)

Compound: CCOC(=O)c1ccc(NC(=O)NC2CCN(CC(=O)NCc3ccc4c(c3)OCO4)CC2)cc1
- IC50 (Prothrombin): > 50 µM (not active)

Compound: Nc1ccc(Br)c[n+]1Cc1cccc2cccnc12
- CC50 [15]: > 50 µM (active)
- IC50 (cells): 46.7 µM (active)

Compound: O=C1c2ccccc2C(=O)N1CCCCN(C(=O)c1ccco1)c1ccc(Cl)cc1
- IC50 (cells): 11.8 µM (active)

Compound: C/C=C/c1ccccc1[C@H]1[C@@H](C#N)N(C(=O)NC2CCCC2)[C@H]1CO
- AC50 [16]: 33.8 µM (active)
- AC50 [17]: 1.85 µM (active)
- AC50 [18]: 0.952 µM (active)
- AC50 [19]: 1.58 µM (active)

Compound: Cc1ccc(C(=O)n2nc(-c3ccco3)nc2N)cc1
- IC50 (Prothrombin): 0.741 µM (active)
